Data reported in patent US9956176B2, “Compositions and methods for treating ewing sarcoma” (priority 2014, dated 2018).
d = 2'-deoxy (DNA); m = 2'-O-methyl

Assays:
FEZF1-AS1 = FEZF1-AS1 expression in A673 cells; type: cell-based, human
[1] = type: in vivo; details: once a week IV
Excerpt: (§1) To complete the mouse efficacy and safety studies we injected NOG mice with 6×10^6 luciferase transfected human Acute Lymphoblastic Leukemia (REH cells). This special transgenic type of mouse has deletions in the gene encoding the interleukin 2 receptor γ (IL2Rγ) and has added genes expressing human iL3, GM-CSF and SCF. To prevent rejection of injected human leukemia cells, the NOG mice have a complete lack of B, T, and NK cells, and a deficiency of cytokine signaling. The mice were separated into six groups. Group 1 received only buffer treatment; group 2-untargeted, unloaded HPLN; group 3-untargeted, HPLN/Dox (2 mg Dox/kg); group 4-(targeted) anti-CD-19/HPLN/Dox (2 mg Dox/kg); group 5-Doxil (2 mg Dox/kg); and group 6-(free) doxorubicin (2 mg Dox/kg).
(§2) Upon injection of the leukemia cells, Xenogen camera images were done once per week and used to assess both tumor cell distribution and quantitative tumor burden. After 10 days post leukemia cell injection, our targeted nanoparticle drug (anti-CD-19/HPLN/Dox) or control particles or drugs, were administered to the mice, in once a week dosages. The amount of drug given was based on the active substance (doxorubicin), not on total nanoparticle mass in each formulation (except for group 2, these mice received an equivalent HPLN dose in unloaded form). […]

[2] = system: human Acute Lymphoblastic Leukemia (REH cells); assay: REH-Luc leukemia xenograft, tumor burden by Xenogen camera; type: in vivo, mouse
Excerpt: as §1, §2

RNA polymerase II = target: T1, RNA polymerase II (Homo sapiens, UniProt P24928); assay: inhibition of FEZF1-AS1 transcription; type: cell-based
T1 construct: endogenous in cells; host or cells: Ewing sarcoma cells
Excerpt: FEZF1-AS1 is located on human chromosome 7q31.32 on the positive strand and overlaps the first two exons of protein-coding gene, FEZF1, which lies on the opposite strand. To characterize this gene in Ewing sarcoma, we performed Northern blot analysis using different biotin-labelled probes that confirmed the 2.6 kb transcript was predominantly expressed in Ewing sarcoma. […] RNA-sequencing of two Ewing sarcoma cell lines, CHLA-9 and CHLA-10, identified multiple isoforms of the transcript, some of which included introns and/or extended beyond exon 7. CHLA-9 and CHLA-10 are Ewing sarcoma cell lines from the same patient. CHLA-9 is from the primary tumor and CHLA-10 is from the metastatic tumor. We validated some of the isoforms by PCR and Sanger sequencing. To confirm the annotation of FEZF1-AS1 as a non-coding RNA, we used the coding potential calculator algorithm that assigned a low score of −1.2 compared to scores of 5 and above for coding genes such as FLI1, and NR0B1. FEZF1-AS1 transcription was inhibited by alpha-amanitin but not by RNA Polymerase III inhibitor, thus confirming that RNA polymerase II transcribes the lncRNA. […] Thus, lncRNA FEZF1-AS1 is a highly expressed gene is Ewing sarcoma.

## 5-mG*mU*mG*mU*mG*T*G*T*G*T*C*T*G*C*T*mU*mG*mU*mU*mU-3′ (antisense GUGUGTGTGTCTGCTUGUUU; sugars from the 5' end m5 d10 m5, all phosphorothioate, methylation of C not given here) [FA7]
FEZF1-AS1; A673, 48 hours
  knockdown levels: about 50%
FEZF1-AS1; A673, nucleofection, 24 hours
  FEZF1-AS1 levels reduced to: 80%

## COc1cccc2c1C(=O)c1c(O)c3c(c(O)c1C2=O)C[C@@](O)(C(=O)CO)C[C@@H]3O[C@H]1C[C@H](N)[C@H](O)[C@H](C)O1 [doxorubicin]
[1]
  tolerability, acute toxic reactions: lose weight and appeared sickly
[2]; 2 mg Dox/kg once a week from day 10, IV, FIG. 4
  tumor growth / tumor reduction: significant tumor reduction
[2]; 2 mg Dox/kg, day 35, FIG. 8
  tumor size and burden: markedly less

## alpha-amanitin
RNA polymerase II
  FEZF1-AS1 transcription: inhibited
